Experimental data as given in ChEMBL document CHEMBL1201862, “PubChem BioAssay data set” (2004).
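Growth conditions: 96-well plates. Treatment: test compound, 48 hours, 5 concentrations. Analysis: linear interpolation between bracketing concentrations; unreached endpoints set to highest concentration. Here, GI50 denotes the concentration required for 50% inhibition of growth.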 Activity calls are given as the source filed them. Cut-off read from the data, not from the text of the source: active = GI50 up to about 1.1 µM and inactive = higher.

Key:
Experiment in all cases: DTP human tumour cell line panel, 48 h
SW-620 = tested on: SW-620
SNB-75 = tested on: SNB-75
SK-MEL-5 = tested on: SK-MEL-5
HOP-92 = tested on: HOP-92
SK-MEL-2 = tested on: SK-MEL-2
IGROV-1 = tested on: IGROV-1
MOLT-4 = tested on: MOLT-4
U-251 = tested on: U-251
M14 = tested on: M14
HT-29 = tested on: HT-29
TK-10 = tested on: TK-10
HCT-116 = tested on: HCT-116
SNB-19 = tested on: SNB-19
SK-MEL-28 = tested on: SK-MEL-28
MDA-N = tested on: MDA-N
UACC-62 = tested on: UACC-62
A498 = tested on: A498
RXF 393 = tested on: RXF 393
OVCAR-4 = tested on: OVCAR-4
OVCAR-5 = tested on: OVCAR-5

Row | Structure (SMILES) | GI50 (SW-620) | GI50 (SNB-75) | GI50 (SK-MEL-5) | GI50 (HOP-92) | GI50 (SK-MEL-2) | GI50 (IGROV-1) | GI50 (MOLT-4) | GI50 (U-251) | GI50 (M14) | GI50 (HT-29) | GI50 (TK-10) | GI50 (HCT-116) | GI50 (SNB-19) | GI50 (SK-MEL-28) | GI50 (MDA-N) | GI50 (UACC-62) | GI50 (A498) | GI50 (RXF 393) | GI50 (OVCAR-4) | GI50 (OVCAR-5)
1 | CC(C)(C)c1ccc(-c2nnc(SCc3ccc(Cl)cc3)n2-c2cccc(C(F)(F)F)c2)cc1 | 15.9 µM (inactive) | 27.5 µM (inactive) | 14 µM (inactive) | 19.8 µM (inactive) | 16.8 µM (inactive) | 26.9 µM (inactive) | 3.78 µM (inactive) | 8.85 µM (inactive) | 15 µM (inactive) | 5.47 µM (inactive) | 39.4 µM (inactive) | 4.71 µM (inactive) | 36.1 µM (inactive) | > 78.9 µM (inactive) | 24.2 µM (inactive) | 22.5 µM (inactive) | 31.1 µM (inactive) | 8.91 µM (inactive) | 7.8 µM (inactive) | 32.8 µM (inactive)
2 | Nc1nnc2oc3ccc4ccccc4c3cc1-2 | 36.1 µM (inactive) | 21.4 µM (inactive) | 27.3 µM (inactive) | 26.2 µM (inactive) | 27.7 µM (inactive) | 30.6 µM (inactive) | 27.7 µM (inactive) | 35.9 µM (inactive) | 37.4 µM (inactive) | 38.2 µM (inactive) | 42 µM (inactive) | 34.4 µM (inactive) | 51.8 µM (inactive) | 39.9 µM (inactive) | 34 µM (inactive) | 29 µM (inactive) | 24.6 µM (inactive) | 28 µM (inactive) | 30.8 µM (inactive) | 57.1 µM (inactive)
3 | CC/C(Cl)=N\OC(=O)Nc1ccc(OC)cc1 | 2.7 µM (inactive) | 6.27 µM (inactive) | 6.18 µM (inactive) | 2.43 µM (inactive) | 18.2 µM (inactive) | 6.71 µM (inactive) | 2.07 µM (inactive) | 19.5 µM (inactive) | 5.19 µM (inactive) | 6.05 µM (inactive) | 5.43 µM (inactive) | 5.86 µM (inactive) | 24 µM (inactive) | 6.71 µM (inactive) | 6.14 µM (inactive) | 8.57 µM (inactive) | 18.2 µM (inactive) | 2.15 µM (inactive) | 16.7 µM (inactive) | 6.11 µM (inactive)
4 | CC(C)c1cccc(=O)c(O)c1 | 1.79 µM (inactive) | 6.18 µM (inactive) | 2.1 µM (inactive) | 1.75 µM (inactive) | 5.68 µM (inactive) | 7.8 µM (inactive) | 1.02 µM (active) | 0.411 µM (active) | 2.03 µM (inactive) | 3.07 µM (inactive) | 1.25 µM (inactive) | 1.72 µM (inactive) | 7.24 µM (inactive) | 1.5 µM (inactive) | 2.18 µM (inactive) | 2.67 µM (inactive) | 14.6 µM (inactive) | 0.299 µM (active) | 2.56 µM (inactive) | 9.73 µM (inactive)
5 | C=CC(O)C#Cc1cnc(OC)nc1OC (stereo not given) | 75.9 µM (inactive) | 65.8 µM (inactive) | > 100 µM (inactive) | > 100 µM (inactive) | > 100 µM (inactive) | > 100 µM (inactive) | 32.6 µM (inactive) | > 100 µM (inactive) | > 100 µM (inactive) | > 100 µM (inactive) | > 100 µM (inactive) | 82.8 µM (inactive) | > 100 µM (inactive) | > 100 µM (inactive) | > 100 µM (inactive) | > 100 µM (inactive) | 16.3 µM (inactive) | > 100 µM (inactive) | > 100 µM (inactive) | > 100 µM (inactive)
6 | O=[N+]([O-])c1ccc(O)c(/C=N/NC(=S)N2CCCCC2)c1 | 3.13 µM (inactive) | 4.22 µM (inactive) | 3.7 µM (inactive) | 4.17 µM (inactive) | 11.3 µM (inactive) | 1.67 µM (inactive) | 1.34 µM (inactive) | 3.53 µM (inactive) | 3.81 µM (inactive) | 2.33 µM (inactive) | 4.98 µM (inactive) | 3.21 µM (inactive) | 4.69 µM (inactive) | 3.71 µM (inactive) | 8.26 µM (inactive) | 3.3 µM (inactive) | 9.12 µM (inactive) | 6.05 µM (inactive) | 6.24 µM (inactive) | 16 µM (inactive)
7 | C[n+]1cc2cc(O)c(O)cc2c2ccc3cc(O)c(O)cc3c21.c1ccncc1 | 3.51 µM (inactive) | 3.31 µM (inactive) | 3.24 µM (inactive) | 2.31 µM (inactive) | 3.05 µM (inactive) | 2.02 µM (inactive) | 0.912 µM (active) | 1.6 µM (inactive) | 2.18 µM (inactive) | 3.3 µM (inactive) | 4.01 µM (inactive) | 1.4 µM (inactive) | 1.49 µM (inactive) | 4.66 µM (inactive) | 3.25 µM (inactive) | 1.75 µM (inactive) | 2.51 µM (inactive) | 2.07 µM (inactive) | 2.88 µM (inactive) | 6.24 µM (inactive)
8 | CCOc1ccc(C2c3[nH]c4ccccc4c3CCN2C(=O)c2cccs2)cc1 (stereo not given) | 21.1 µM (inactive) | 35.6 µM (inactive) | 5.75 µM (inactive) | > 100 µM (inactive) | 78.3 µM (inactive) | 10.2 µM (inactive) | 2.65 µM (inactive) | 4.07 µM (inactive) | 37.7 µM (inactive) | 5.98 µM (inactive) | > 100 µM (inactive) | 4.8 µM (inactive) | 23.8 µM (inactive) | > 100 µM (inactive) | 6.55 µM (inactive) | 6.04 µM (inactive) | 7.4 µM (inactive) | 7.18 µM (inactive) | 4.22 µM (inactive) | > 100 µM (inactive)
9 | C=CCC1=CC2(OC)C(=O)C(OC)(OC)C1C1C(OC)(OC)C(=O)C(OC)=CC12CC=C (stereo not given) | > 100 µM (inactive) | > 100 µM (inactive) | > 100 µM (inactive) | > 100 µM (inactive) | > 100 µM (inactive) | > 100 µM (inactive) | > 100 µM (inactive) | > 100 µM (inactive) | > 100 µM (inactive) | > 100 µM (inactive) | > 100 µM (inactive) | > 100 µM (inactive) | > 100 µM (inactive) | > 100 µM (inactive) | > 100 µM (inactive) | > 100 µM (inactive) | > 100 µM (inactive) | > 100 µM (inactive) | > 100 µM (inactive) | > 100 µM (inactive)
10 | CC1=NN(c2ccc(S(=O)(=O)O)cc2)C(=O)/C1=C/c1ccc(Cl)cc1.c1ccncc1 | > 100 µM (inactive) | > 100 µM (inactive) | > 100 µM (inactive) | > 100 µM (inactive) | > 100 µM (inactive) | > 100 µM (inactive) | > 100 µM (inactive) | > 100 µM (inactive) | > 100 µM (inactive) | > 100 µM (inactive) | > 100 µM (inactive) | > 100 µM (inactive) | > 100 µM (inactive) | > 100 µM (inactive) | > 100 µM (inactive) | > 100 µM (inactive) | > 100 µM (inactive) | > 100 µM (inactive) | > 100 µM (inactive) | > 100 µM (inactive)
11 | Cc1ccc(C2SCC(=O)N2c2ccc(-n3c(-c4ccccc4)nc4ccccc4c3=O)cc2)cc1 (stereo not given) | 34.6 µM (inactive) | 18.3 µM (inactive) | 11.6 µM (inactive) | 15.2 µM (inactive) | 20.8 µM (inactive) | 20.5 µM (inactive) | 7.1 µM (inactive) | 5.3 µM (inactive) | 23.3 µM (inactive) | 17.2 µM (inactive) | 50.9 µM (inactive) | 7.82 µM (inactive) | 26.9 µM (inactive) | 21 µM (inactive) | 20.9 µM (inactive) | 11.5 µM (inactive) | 26.1 µM (inactive) | 22.8 µM (inactive) | 22.8 µM (inactive) | 42.4 µM (inactive)
12 | C[C@H](CCC(=O)NCC(=O)O)[C@H]1CC[C@H]2[C@@H]3[C@H](O)C[C@@H]4C[C@H](O)CC[C@]4(C)[C@H]3CC[C@]12C | > 100 µM (inactive) | 0.75 µM (active) | > 100 µM (inactive) | > 100 µM (inactive) | > 100 µM (inactive) | > 100 µM (inactive) | > 100 µM (inactive) | > 100 µM (inactive) | > 100 µM (inactive) | > 100 µM (inactive) | > 100 µM (inactive) | > 100 µM (inactive) | > 100 µM (inactive) | > 100 µM (inactive) | > 100 µM (inactive) | > 100 µM (inactive) | > 100 µM (inactive) | > 100 µM (inactive) | > 100 µM (inactive) | > 100 µM (inactive)
13 | CC(=O)OC1CC2CC(=O)CC1N2C (stereo not given) | > 100 µM (inactive) | > 100 µM (inactive) | > 100 µM (inactive) | > 100 µM (inactive) | > 100 µM (inactive) | > 100 µM (inactive) | > 100 µM (inactive) | > 100 µM (inactive) | > 100 µM (inactive) | > 100 µM (inactive) | > 100 µM (inactive) | > 100 µM (inactive) | > 100 µM (inactive) | > 100 µM (inactive) | > 100 µM (inactive) | > 100 µM (inactive) | > 100 µM (inactive) | > 100 µM (inactive) | > 100 µM (inactive) | > 100 µM (inactive)
14 | CCOC(=O)C1=C(C)NC(=S)NC1c1cccc(O)c1 (stereo not given) [MONASTROL] | 44.3 µM (inactive) | 37.2 µM (inactive) | 36.6 µM (inactive) | 32.4 µM (inactive) | 32.4 µM (inactive) | 51.1 µM (inactive) | 33.6 µM (inactive) | 33.9 µM (inactive) | 23.5 µM (inactive) | > 86.3 µM (inactive) | > 100 µM (inactive) | 34.9 µM (inactive) | 76.4 µM (inactive) | 81.5 µM (inactive) | 18.2 µM (inactive) | 36.6 µM (inactive) | 37.1 µM (inactive) | 25.5 µM (inactive) | 66.1 µM (inactive) | 76.6 µM (inactive)
